Values joined by “and” are separate entries in the source; they are usually repeats but may differ in a detail not shown here. Equal entries are not always repeated. Marks after values point to notes of the source that are not given here.
Assays:
EGFR = EGFR level in HepG2 cell lysate (ELISA); assay type: cell-based, human; details: HepG2 treated at IC50, 48 h
Method: (§1) As previously described, with little modification, HepG2 cells were cultured in T25 flask until they reached 30% confluency. […] After treatment, cells were washed by PBS, trypsinized and centrifuged at 10,000 rpm. The formed pellets were washed twice with PBS and lysed in 1 mL ice-cold radio immunoprecipitation assay (RIPA) lysis buffer (50 mM Tris-HCl, pH 8.0, 150 mM NaCl, 1% Triton X-100, 0.5% sodium deoxycholate, 0.1% sodium dodecyl sulfate) and kept on ice for 20 min. Then, the mixture was centrifuged at 15,000 rpm for 15 min to remove any cell debris. The cell lysate was aliquoted and stored at −80 °C for determination of protein using Pierce BCA Protein Assay Kit (Thermo Fisher Scientific, Waltham/Boston, USA) according to manufacturer’s recommendations and determination of other biochemical parameters including EGFR, urokinase Plasminogen Activator (uPA), B-Cell Lymphoma-2 (Bcl-2), heparanase, and oxidative stress markers (glutathione; GSH and malonaldehyde; MDA).
Levels of EGFR [37] and heparanase in cell lysate were investigated using commercially available enzyme-linked immunosorbent assay (ELISA) kits supplied by Abcam (Cat. No. ab269558, ab256401, respectively). Levels of uPA [39] were measured using ELISA kit supplied by Creative Diagnostics (New York, USA, Cat. No. DEIA1630). Bcl-2 levels were determined using ELISA kit supplied by Zymed Laboratories, Carlsbad, California (Cat. No. 99-0042). Briefly, standards and samples were added to corresponding 96-well plate coated with suitable antibody. After the washing step, biotinylated anti-human antibody was added to each well. After washing away unbound biotinylated antibody, horseradish peroxidase (HRP)-conjugated streptavidin was pipetted into each well. A peroxidase substrate solution was added to all wells, after washing, and the color developed was proportionate to the amount of EGFR bound. Finally, the stop solution was added and the color intensity was measured at 450 nm.

HepG2 cells [1] = assay: MTT cytotoxicity assay on HepG2 cells; assay type: cell-based; details: Homo sapiens; for cytotoxicity at 100 ppm: 48 h, 100 p.p.m (μg/mL), read-out: % Death Rate at 100 p.p.m (μg/mL) HepG2; for IC50: HepG2, 48 h
Method: (§2) MTT-based cell viability assay was carried out to evaluate the antiproliferation potential of the target compounds on HCC cell lines (HepG2 and Huh7). The half maximal inhibitory concentration (IC50) values were calculated against DMSO non-treated HepG2 cells (negative control) and Dox-treated HepG2 cells (positive control). The assay was conducted using 3-(4, 5-di-MethylThiazol-2-yl)-2,5-diphenyl Tetrazolium bromide (MTT) to test cell viability, according to the method described by Mosmann with minor changes. The yellow MTT is reduced in the viable cells to purple formazan. The insoluble formazan is solubilized by DMSO to colored solution measured spectrophotometrically. Briefly, cells were seeded in a 96-well plate at density of 1 × 10^4 cells/well for 24 h in 5% CO2 incubator at 37 °C to allow their adherence. […] After incubation, 20 μL of a 5 mg/mL MTT solution were mixed with the contents of each well, and the plate was incubated for another 4 h. Then, the medium was suctioned, and the wells were washed with PBS. After 2 h of drying, 200 μL of DMSO was added to each well. The plate was set on a shaker to dissolve the formazan crystals. Then, the absorbance was measured spectrophotometrically at 570 nm with a reference wavelength of 630 nm using ELX800 UV universal microplate reader (BioTek Instruments Inc., VT, Santa Clara, CA, USA).
(§3) All experiment conditions were tested in three replicates. The % cell viability was calculated from the following equation: (mean absorbance of treated sample/mean absorbance of negative control sample) × 100. The % death rate = 100 -% cell viability, and the inhibitory concentration of 50% (IC50) was measured from the exponential curve of viability against concentration (dose–response curve).

HepG2 cells [2] = assay: Annexin V/FITC-PI apoptosis assay; assay type: cell-based, human; details: for %Cell Death Early Apoptosis / %Cell Death Late Apoptosis / %Cell Death Total Apoptosis / Necrosis: HepG2, IC50 of the compound, 24 h (method says 48 h)
Method: Annexin V/PI double staining kit (eBiosciencesDx) was used to detect apoptotic activity of the selected isatin sulfonamide derivatives. The Annexin V corresponding signal provides a very sensitive marker for cellular apoptosis, while PI was used to detect necrotic or late apoptotic cells, identified by the loss of plasma integrity and loss of nuclear membranes.
Briefly, 1 × 10^5 cells/mL of HepG2 cells were seeded into a 6-well plate and incubated at 37 °C, 5% CO2, overnight. […] After time elapsed, trypsinization of cells was carried out. Washing was done by PBS once, followed by fixation using 70% ethanol. Fixed cells were stored at 4 °C for 2 h, then centrifuged at 500× g for 5 min. Again, cells were washed with PBS prior to staining. An amount of 200 μL of the staining solution (annexin V- fluorescein 5-isothiocyanate (FITC) and PI in binding buffer (10 mM HEPES, 140 mM NaCl, and 2.5 mM CaCl2 at pH 7.4)) were added to the cell suspension and incubated at 37 °C for 20 to 30 min in dark and analyzed with a fluorescence-activated cell sorter (FACS) (BD FACSCalibur, BD Biosciences, California, USA). Data were analyzed using ModFit LT v2.0 (Verity Software House, Topsham, Maine, USA).
These plots were divided into four regions corresponding to: • (1) Viable cells, which are negative to both probes (PI/FITC −/−), • (2) Apoptotic cells, which are PI negative and Annexin positive (PI/FITC −/+), • (3) Late apoptotic cells, which are both PI and Annexin positive (PI/FITC +/+), • (4) Necrotic cells, which are PI positive and Annexin negative (PI/FITC+/−).

Huh7 cells = assay: MTT cytotoxicity assay on Huh7 cells; assay type: cell-based, human; details: for % Death Rate at 100 p.p.m (μg/mL) Huh7: 48 h; for IC50: Homo sapiens, Huh-7, 48 h
Method: as §2, §3

glutathione (GSH) = assay: GSH level in HepG2 cell lysate (DTNB method); assay type: cell-based, human; details: HepG2 treated at IC50, 48 h
Method: as §1
Glutathione levels were determined using GSH Biodiagnostics kit (Cairo, Egypt). The method is based on the reduction of 5,5′dithiobis (2-nitrobenzoic acid) (DTNB) with glutathione (GSH) to produce a yellow compound. The reduced chromogen is directly proportional to GSH concentration and its absorbance was measured at 405 nm.

## Cc1ccc(C(=O)CC2(O)C(=O)Nc3ccc(S(=O)(=O)N4CCCCC4)cc32)cc1 (centres unmarked) [Compound 3a, 3-hydroxy-3-(2-oxo-2-(p-tolyl)ethyl)-5-(piperidin-1-ylsulfonyl)indolin-2-one]
EGFR
  EGFR level in cell lysate: 42 ± 2.3 pmol/mg protein and 42 ± 2.3 ^a*^,b* pmol/mg protein
HepG2 cells [1]
  cytotoxicity at 100 ppm: 70.1%
  IC50: ~16.8 µM
HepG2 cells [2]
  %Cell Death Early Apoptosis: 3.56%
  %Cell Death Late Apoptosis: 29.58%
  %Cell Death Total Apoptosis: 46.3% and 46.29%
  Necrosis: 13.15%
HepG2 cells [2]; HepG2, negative control 1.47%
  Total apoptosis, fold greater than negative control HepG2 cells: 31.49 fold
Huh7 cells
  % Death Rate at 100 p.p.m (μg/mL) Huh7: 100 * %
  IC50: 40 ± 2.2 µM
Glutathione (GSH)
  GSH level in cell lysate: 1.6 ± 0.7 µmol/mg protein

## CC(=O)Nc1cccc(C(=O)C=C2C(=O)Nc3ccc(S(=O)(=O)N4CCCCC4)cc32)c1 [Compound 4c, N-(3-(2-(2-oxo-5-(piperidin-1-ylsulfonyl)indolin-3-ylidene)acetyl)phenyl)acetamide]
EGFR
  EGFR level in cell lysate: 54 ± 2.4 ^a*^,b* pmol/mg protein
HepG2 cells [1]
  cytotoxicity at 100 ppm: 95.6%
  IC50: ~39.7 µM
HepG2 cells [2]
  %Cell Death Early Apoptosis: 2.88%
  %Cell Death Late Apoptosis: 18.08%
  %Cell Death Total Apoptosis: 32.0% and 32.02%
  Necrosis: 11.06%
Huh7 cells
  % Death Rate at 100 p.p.m (μg/mL) Huh7: 75.60 * %
  IC50: 35 ± 1.9 µM
Glutathione (GSH)
  GSH level in cell lysate: 2.1 ± 0.3 ^b* µmol/mg protein

## CC(=O)Nc1ccc(C(=O)C=C2C(=O)Nc3ccc(S(=O)(=O)N4CCCCC4)cc32)cc1 [Compound 4b, N-(4-(2-(2-oxo-5-(piperidin-1-ylsulfonyl)indolin-3-ylidene)acetyl)phenyl)acetamide]
EGFR
  EGFR level in cell lysate: 87.49 ± 3.4 ^a*^,b* pmol/mg protein
HepG2 cells [1]
  cytotoxicity at 100 ppm: 94.2%
  IC50: ~44.7 µM
HepG2 cells [2]
  %Cell Death Early Apoptosis: 6.12%
  %Cell Death Late Apoptosis: 12.61%
  %Cell Death Total Apoptosis: 28.1% and 28.14%
  Necrosis: 9.41%
Huh7 cells
  % Death Rate at 100 p.p.m (μg/mL) Huh7: 76.00 * %
  IC50: 53 ± 3 µM
Glutathione (GSH)
  GSH level in cell lysate: 1.1 ± 0.7 µmol/mg protein

## COc1cccc2c1C(=O)c1c(O)c3c(c(O)c1C2=O)C[C@@](O)(C(=O)CO)C[C@@H]3O[C@H]1C[C@H](N)[C@H](O)[C@H](C)O1 [Doxorubicin, reference compound]
EGFR
  EGFR level in cell lysate: 27.5 ± 1.7 ^a* pmol/mg protein
HepG2 cells [1]
  cytotoxicity at 100 ppm: 100%
  IC50: 21.6 ± 0.81 µM
HepG2 cells [2]
  %Cell Death Early Apoptosis: 1.85%
  %Cell Death Late Apoptosis: 26.27%
  %Cell Death Total Apoptosis: 42.38%
  Necrosis: 14.26%
Huh7 cells
  % Death Rate at 100 p.p.m (μg/mL) Huh7: 100%
  IC50: 11.6 ± 0.9 µM
Glutathione (GSH)
  GSH level in cell lysate: 0.8 ± 0.1 ^a* µmol/mg protein
